Target: T1, ovine COX I (Ovis aries, UniProt P05979)
T1 construct: a ram seminal vesicle preparation enriched in COX I (Biomol) was used; tissue Biomol; host or cells: ram seminal vesicle
T1 sequence (P05979 25-600): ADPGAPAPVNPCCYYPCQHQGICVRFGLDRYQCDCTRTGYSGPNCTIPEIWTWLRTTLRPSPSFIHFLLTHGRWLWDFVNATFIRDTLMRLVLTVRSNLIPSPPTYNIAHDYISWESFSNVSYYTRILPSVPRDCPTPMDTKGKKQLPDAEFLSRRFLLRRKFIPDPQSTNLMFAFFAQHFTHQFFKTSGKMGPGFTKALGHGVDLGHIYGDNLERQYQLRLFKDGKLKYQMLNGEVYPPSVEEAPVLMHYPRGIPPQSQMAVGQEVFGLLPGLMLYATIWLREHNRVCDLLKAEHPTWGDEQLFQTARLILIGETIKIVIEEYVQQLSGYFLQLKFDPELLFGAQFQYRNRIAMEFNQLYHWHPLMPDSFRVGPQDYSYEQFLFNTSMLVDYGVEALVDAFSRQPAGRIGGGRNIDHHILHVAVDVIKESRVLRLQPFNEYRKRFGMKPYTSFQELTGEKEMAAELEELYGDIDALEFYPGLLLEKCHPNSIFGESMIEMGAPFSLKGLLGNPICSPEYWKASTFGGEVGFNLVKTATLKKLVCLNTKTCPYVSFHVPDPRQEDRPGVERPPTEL
Assay: COX I biochemical assay (ram seminal vesicle preparation)
Description: Both the COX I and COX II assays were performed using modified versions of previously reported methods (Corey, E. J., Shih, C., and Cashman, J. R., 1983 Proc. Natl. Acad. Sci. v80, p3; Sigal, E., Grunberger, D., Cashman, J. R., Craik, C. S., Caughey, G. H., and Nadel, J. A., 1988 Biochem. Biophys. Res Comm. v150(1), p376). To assess for the presence of compounds in the peat bog extracts that were capable of inhibiting COX II, purified human recombinant COX II (Oxford Chemical) was suspended in 50 uL of COX assay buffer (50 mM Tris, pH 8.0) containing 0.2 mM hydroquinone, 5.0 mM tryptophan, 1.0 uM hematin, and 1.0 mM glutathione. […]
The assessment of cyclooxygenase activity (both COX I and II) in the presence and absence of the peat bog extracts was based on the quantitation of tlhe radiolabeled arachidonic acid metabolites prostaglandin A2 (PGA2), PGE2, and PGF2-alpha. […] The bands were visualized by UV-vis or I2 staining and scraped into scintillation vials for quantitation. […] The total enzyme activity (At), the corrected enzyme activity in the presence of an inhibitor (Ai), and % inhibition were calculated by the following equations: […]
The inhibitory activity of dehydroabietic acid methyl ester was assessed by performing biochemical assays that utilized 1) human recombinant COX II, 2) ovine COX I, and 3) rabbit reticulocyte 15-LO. […]

Structure (SMILES) | Percent Inhibition of COX I (pure 4-cumylphenol, assay as Example 2B, concentration not given) | Percent Inhibition of COX I (final concentration of 250 uM)
CC(C)(c1ccccc1)c1ccc(O)cc1 [4-Cumylphenol, 4-cumylphenol] | 1.6% | 
COC(=O)[C@]1(C)CCC[C@]2(C)c3ccc(C(C)C)cc3CC[C@@H]12 [Dehydroabietic acid methyl ester, dehydroabietic acid methyl ester] |  | 0.2%

From patent publication US6365634B1, “Naturally occurring compounds and their derivatives as cyclooxygenase 2 and/or 5-lipoxygenase inhibitors” (C-P Technology Limited Partnership, priority 1997, dated 2002)
